This note sets out measurements from article PMC4704483 (2015).

In this assay the test system is (CUG)100, internal fluorescein-labeled (RNA, repeat) CUGCUGCUGCUGCUGCUGCUGCUGCUGCUGCUGCUGCUGCUGCUGCUGCUGCUGCUGCUGCUGCUGCUGCUGCUGCUGCUGCUGCUGCUGCUGCUGCUGCUGCUGCUGCUGCUGCUGCUGCUGCUGCUGCUGCUGCUGCUGCUGCUGCUGCUGCUGCUGCUGCUGCUGCUGCUGCUGCUGCUGCUGCUGCUGCUGCUGCUGCUGCUGCUGCUGCUGCUGCUGCUGCUGCUGCUGCUGCUGCUGCUGCUGCUGCUGCUGCUGCUGCUGCUGCUGCUGCUGCUGCUGCUGCUGCUGCUGCUG
As to the kind of experiment: fluorescence titration. Conditions: data not shown.

`CC[C@H]1OC(=O)[C@H](C)[C@@H](O[C@H]2C[C@@](C)(OC)[C@@H](O)[C@H](C)O2)[C@H](C)[C@@H](O[C@@H]2O[C@H](C)C[C@H](N(C)C)[C@H]2O)[C@](C)(O)C[C@@H](C)C(=O)[C@H](C)[C@@H](O)[C@]1(C)O`: the K d (salt form not stated) was < 1000 nM. Consider `NC[C@@H]1O[C@H](O[C@H]2[C@@H](O)[C@H](O[C@@H]3[C@@H](O)[C@H](N)C[C@H](N)[C@H]3O[C@H]3O[C@H](CN)[C@@H](O)[C@H](O)[C@H]3N)O[C@@H]2CO)[C@H](N)[C@@H](O)[C@@H]1O`, for which the K d is < 1000 nM.
